Test results published in US11759455B2, “Substituted 1H-imidazo[4,5-b]pyridin-2(3H)-ones and their use as GLUN2B receptor modulators” (JANSSEN PHARMACEUTICA NV, priority 2016, dated 2023).
Read-outs that look alike come from different tables or passages of the source.

Target: T1, human GluN1/GluN2B NMDA receptors (Homo sapiens, UniProt Q13224)
T1 construct: expressed in transfected cells
Experiment: Cell-based calcium flux (FLIPR) assay on cloned human NR1/NR2B ion channels expressed in mammalian cells (standard and HTS buffer variants);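 note: stable Tet-On inducible cell line, Ca2+ influx triggered by glutamate at about EC40 plus 10 µM glycine, fluorescent dye read-out over 5 min, normalized to control wells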

[1] = standard assay buffer (0.5 mM MgCl2 in dye loading buffer; 137 mM NaCl, 4 mM KCl in assay buffer), human GluN1/GluN2B, read-out: NR2B IC50 (μM) standard assay
[2] = HTS assay buffer (1.5 mM MgCl2 in dye loading buffer; 150 mM NaCl, 3 mM KCl in assay buffer), human GluN1/GluN2B, read-out: NR2B IC50 (μM) HTS assay
[3] = standard assay buffer (0.5 mM MgCl2 dye loading; 137 mM NaCl, 4 mM KCl assay buffer), human GluN1/GluN2B cells, read-out: NR2B IC50 (μM) standard assay

T1 sequence (Q13224 27-1484, other chains not shown): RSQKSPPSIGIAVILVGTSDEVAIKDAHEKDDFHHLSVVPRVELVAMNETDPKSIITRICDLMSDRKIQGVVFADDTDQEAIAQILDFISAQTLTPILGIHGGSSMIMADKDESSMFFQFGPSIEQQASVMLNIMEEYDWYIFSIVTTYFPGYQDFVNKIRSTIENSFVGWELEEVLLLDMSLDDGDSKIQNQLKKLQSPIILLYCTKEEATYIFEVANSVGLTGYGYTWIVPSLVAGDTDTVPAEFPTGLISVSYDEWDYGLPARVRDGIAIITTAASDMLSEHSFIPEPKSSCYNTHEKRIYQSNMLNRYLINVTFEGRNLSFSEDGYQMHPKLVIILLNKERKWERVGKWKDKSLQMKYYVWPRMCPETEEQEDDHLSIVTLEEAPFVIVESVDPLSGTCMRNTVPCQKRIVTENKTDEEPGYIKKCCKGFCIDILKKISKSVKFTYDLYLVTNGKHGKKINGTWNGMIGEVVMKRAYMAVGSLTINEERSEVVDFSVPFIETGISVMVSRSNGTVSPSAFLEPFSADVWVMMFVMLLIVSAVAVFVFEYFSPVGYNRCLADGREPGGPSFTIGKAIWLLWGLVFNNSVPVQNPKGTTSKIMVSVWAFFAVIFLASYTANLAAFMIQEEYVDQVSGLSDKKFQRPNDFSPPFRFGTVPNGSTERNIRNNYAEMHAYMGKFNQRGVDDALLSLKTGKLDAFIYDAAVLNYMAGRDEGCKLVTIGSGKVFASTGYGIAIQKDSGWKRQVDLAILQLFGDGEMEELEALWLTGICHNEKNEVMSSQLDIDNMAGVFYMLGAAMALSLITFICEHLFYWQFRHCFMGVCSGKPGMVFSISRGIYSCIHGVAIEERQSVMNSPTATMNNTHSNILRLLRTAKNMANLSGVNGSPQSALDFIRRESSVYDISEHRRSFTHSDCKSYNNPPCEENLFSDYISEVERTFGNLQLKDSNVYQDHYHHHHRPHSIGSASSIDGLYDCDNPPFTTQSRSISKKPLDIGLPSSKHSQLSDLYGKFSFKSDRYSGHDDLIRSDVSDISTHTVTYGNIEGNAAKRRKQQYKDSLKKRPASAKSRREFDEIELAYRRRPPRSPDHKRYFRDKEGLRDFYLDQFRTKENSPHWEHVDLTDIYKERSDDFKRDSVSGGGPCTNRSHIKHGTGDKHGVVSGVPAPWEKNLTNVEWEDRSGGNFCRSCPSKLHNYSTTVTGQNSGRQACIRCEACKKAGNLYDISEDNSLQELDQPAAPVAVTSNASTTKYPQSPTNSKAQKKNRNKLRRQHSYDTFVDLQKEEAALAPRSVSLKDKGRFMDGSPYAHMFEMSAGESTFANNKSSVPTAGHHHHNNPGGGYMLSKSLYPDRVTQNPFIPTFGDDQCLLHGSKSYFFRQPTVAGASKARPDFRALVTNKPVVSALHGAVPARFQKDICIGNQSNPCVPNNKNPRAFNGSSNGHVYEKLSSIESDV

SMILES	IC50 [1] [µM]	also measured
Cc1ccc(-c2cnc3c(c2)n(Cc2cnn(C)c2)c(=O)n3C)s1 [Example 555, 3-Methyl-1-[(1-methylpyrazol-4-yl)methyl]-6-(5-methyl-2-thienyl)imidazo[4,5-b]pyridin-2-one]	1.31	–
CCOc1cccc(-c2cnc3[nH]c(=O)n(CC(=O)NC4CC4)c3c2)c1 [Example 449, N-Cyclopropyl-2-[6-(3-ethoxyphenyl)-2-oxo-3H-imidazo[4,5-b]pyridin-1-yl]acetamide]	–	IC50 [2]: 0.638 µM
Cn1c(=O)n(Cc2cncc(F)c2)c2cc(-c3ccc(F)c(F)c3F)cnc21 [Example 347, 1-[(5-Fluoro-3-pyridyl)methyl]-3-methyl-6-(2,3,4-trifluorophenyl)imidazo[4,5-b]pyridin-2-one]	0.621	–
Cc1nnc(Cn2c(=O)n(C)c3ncc(-c4ccc(F)c(C)c4F)cc32)o1 [Example 575, 6-(2,4-Difluoro-3-methyl-phenyl)-3-methyl-1-[(5-methyl-1,3,4-oxadiazol-2-yl)methyl]imidazo[4,5-b]pyridin-2-one]	0.028	–
Cn1c(=O)n(Cc2cncnc2)c2cc(-c3cccc(C(F)(F)F)c3)cnc21 [Example 247, 3-Methyl-1-(pyrimidin-5-ylmethyl)-6-[3-(trifluoromethyl)phenyl]imidazo[4,5-b]pyridin-2-one]	–	IC50 [3]: 0.133 µM
O=c1[nH]c2ncc(-c3cccc(C(F)(F)F)c3)cc2n1Cc1nn[nH]n1 [Example 236, 1-(2H-Tetrazol-5-ylmethyl)-6-[3-(trifluoromethyl)phenyl]-3H-imidazo[4,5-b]pyridin-2-one]	–	IC50 [3]: > 5 µM
COc1ccnc(Cn2c(=O)[nH]c3ncc(-c4ccc(C(C)(C)C)cc4)cc32)c1OC [Example 512, 6-(4-tert-Butylphenyl)-1-[(3,4-dimethoxy-2-pyridyl)methyl]-3H-imidazo[4,5-b]pyridin-2-one]	–	IC50 [2]: > 29 µM
Cc1c(F)ccc(-c2cnc3c(c2)n(CC(=O)N(C)C)c(=O)n3CF)c1F [Example 599, 2-[6-(2,4-Difluoro-3-methyl-phenyl)-3-(fluoromethyl)-2-oxo-imidazo[4,5-b]pyridin-1-yl]-N,N-dimethyl-acetamide]	0.025	–
CCOc1cccc(-c2cnc3[nH]c(=O)n(CC(=O)c4cccs4)c3c2)c1 [Example 463, 6-(3-Ethoxyphenyl)-1-[2-oxo-2-(2-thienyl)ethyl]-3H-imidazo[4,5-b]pyridin-2-one]	–	IC50 [2]: 0.36 µM
Cc1noc(Cn2c(=O)n(C)c3ncc(-c4ccc(C)s4)cc32)n1 [Example 557, 3-Methyl-1-[(3-methyl-1,2,4-oxadiazol-5-yl)methyl]-6-(5-methyl-2-thienyl)imidazo[4,5-b]pyridin-2-one]	0.671	–
CCOc1ccccc1-c1cnc2[nH]c(=O)n(CC(=O)NC3CC3)c2c1 [Example 456, N-Cyclopropyl-2-[6-(2-ethoxyphenyl)-2-oxo-3H-imidazo[4,5-1D]pyridin-1-yl]acetamide]	0.146	–
O=c1[nH]c2ncc(-c3cccc(C(F)(F)F)c3)cc2n1Cc1cncc(F)c1 [Example 258, 1-[(5-Fluoro-3-pyridyl)methyl]-6-[3-(trifluoromethyl)phenyl]-3H-imidazo[4,5-b]pyridin-2-one]	–	IC50 [3]: 0.077 µM
O=C(Cn1c(=O)[nH]c2ncc(-c3cc(F)cc(F)c3)cc21)NC1CC1 [Example 447, N-Cyclopropyl-2-[6-(3,5-difluorophenyl)-2-oxo-3H-imidazo[4,5-b]pyridin-1-yl]acetamide]	0.184	–
Cc1nnc(Cn2c(=O)[nH]c3ncc(-c4ccc(F)cc4)cc32)o1 [Example 13, 6-(4-Fluorophenyl)-1-[(5-methyl-1,3,4-oxadiazol-2-yl)methyl]-3H-imidazo[4,5-b]pyridin-2-one]	–	IC50 [3]: 0.076 µM
COc1ccc(-c2cnc3[nH]c(=O)n(Cc4ccccc4C#N)c3c2)cc1F [Example 491, 2-[[6-(3-Fluoro-4-methoxy-phenyl)-2-oxo-3H-imidazo[4,5-b]pyridin-1-yl]methyl]benzonitrile]	0.053	–
Cc1cc(-c2cnc3c(c2)n(Cc2cccnc2)c(=O)n3C)sc1Cl [Example 365, 6-(5-Chloro-4-methyl-2-thienyl)-3-methyl-1-(3-pyridylmethyl)imidazo[4,5-b]pyridin-2-one]	0.063	–
Cn1c(=O)n(Cc2cncc(F)c2)c2cc(-c3cccc(OC(F)F)c3)cnc21 [Example 342, 6-[3-(Difluoromethoxy)phenyl]-1-[(5-fluoro-3-pyridyl)methyl]-3-methyl-imidazo[4,5-b]pyridin-2-one]	0.138	–
N#Cc1ccccc1Cn1c(=O)[nH]c2ncc(-c3ccc(Cl)cc3)cc21 [Example 482, 2-[[6-(4-Chlorophenyl)-2-oxo-3H-imidazo[4,5-b]pyridin-1-yl]methyl]benzonitrile]	–	IC50 [2]: 1.41 µM
O=C(Cn1c(=O)[nH]c2ncc(-c3ccc(Cl)cc3)cc21)c1cccs1 [Example 459, 6-(4-Chlorophenyl)-1-[2-oxo-2-(2-thienyl)ethyl]-3H-imidazo[4,5-b]pyridin-2-one]	–	IC50 [2]: 1.42 µM

SMILES	IC50 [1] [µM]	also measured
Cn1cc(Cn2c(=O)n(C)c3ncc(-c4ccc(C(F)(F)F)s4)cc32)cn1 [Example 565, 3-Methyl-1-[(1-methylpyrazol-4-yl)methyl]-6-[5-(trifluoromethyl)-2-thienyl]imidazo[4,5-b]pyridin-2-one]	0.374	–
CN(C)C(=O)Cn1c(=O)n(CF)c2ncc(-c3ccc(C(F)(F)F)s3)cc21 [Example 596, 2-[3-(Fluoromethyl)-2-oxo-6-[5-(trifluoromethyl)-2-thienyl]imidazo[4,5-b]pyridin-1-yl]-N,N-dimethyl-acetamide]	0.066	–
CN(C)C(=O)Cn1c(=O)n(C)c2ncc(-c3cccnc3)cc21 [Example 429, N,N-Dimethyl-2-[3-methyl-2-oxo-6-(3-pyridyl)imidazo[4,5-b]pyridin-1-yl]acetamide]	> 10	–
CCOc1ccc(F)cc1-c1cnc2[nH]c(=O)n(CC(=O)NC3CC3)c2c1 [Example 607, N-Cyclopropyl-2-[6-(2-ethoxy-5-fluoro-phenyl)-2-oxo-3H-imidazo[4,5-b]pyridin-1-yl]acetamide]	0.336	–
Cc1c(F)ccc(-c2cnc3[nH]c(=O)n(Cc4ccccn4)c3c2)c1F [Example 280, 6-(2,4-Difluoro-3-methyl-phenyl)-1-(2-pyridylmethyl)-3H-imidazo[4,5-b]pyridin-2-one]	–	IC50 [3]: 0.576 µM
O=c1[nH]c2ncc(-c3cccc(C(F)(F)F)c3)cc2n1CCN1CCC1 [Example 17, 1-[2-(Azetidin-1-yl)ethyl]-6-[3-(trifluoromethyl)phenyl]-3H-imidazo[4,5-b]pyridin-2-one]	–	IC50 [3]: 0.146 µM
Cc1noc(Cn2c(=O)n(C)c3ncc(-c4ccc(C(F)(F)F)s4)cc32)n1 [Example 569, 3-Methyl-1-[(3-methyl-1,2,4-oxadiazol-5-yl)methyl]-6-[5-(trifluoromethyl)-2-thienyl]imidazo[4,5-b]pyridin-2-one]	0.412	–
Cn1c(=O)n(Cc2ccncn2)c2cc(-c3cccc(F)c3)cnc21 [Example 7, 6-(3-Fluorophenyl)-3-methyl-1-(pyrimidin-4-ylmethyl)imidazo[4,5-b]pyridin-2-one]	–	IC50 [3]: 6.77 µM
O=c1[nH]c2ncc(-c3cccs3)cc2n1CC1CC1 [Example 472, 1-(Cyclopropylmethyl)-6-(2-thienyl)-3H-imidazo[4,5-b]pyridin-2-one]	1.56	–
Cc1cncc(Cn2c(=O)[nH]c3ncc(-c4cc(F)c(F)c(F)c4)cc32)c1 [Example 308, 1-[(5-Methyl-3-pyridyl)methyl]-6-(3,4,5-trifluorophenyl)-3H-imidazo[4,5-b]pyridin-2-one]	–	IC50 [3]: 0.03 µM
O=C(Cn1c(=O)[nH]c2ncc(-c3cc(OCCF)cc(C(F)(F)F)c3)cc21)N1CCC1 [Example 539, 1-[2-(Azetidin-1-yl)-2-oxo-ethyl]-6-[3-(2-fluoroethoxy)-5-(trifluoromethyl)phenyl]-3H-imidazo[4,5-b]pyridin-2-one]	0.333	–
O=c1[nH]c2ncc(-c3cccc(Cl)c3)cc2n1CCN1CCC1 [Example 158, 1-[2-(Azetidin-1-yl)ethyl]-6-(3-chlorophenyl)-3H-imidazo[4,5-b]pyridin-2-one]	–	IC50 [3]: 0.201 µM
Cn1c(=O)n(CC(=O)N2CC(F)C2)c2cc(-c3ccc(C(F)F)s3)cnc21 [Example 10, 6-[5-(Difluoromethyl)-2-thienyl]-1-[2-(3-fluoroazetidin-1-yl)-2-oxo-ethyl]-3-methyl-imidazo[4,5-b]pyridin-2-one]	–	IC50 [3]: 0.01 µM
Cc1cc(-c2cnc3c(c2)n(CC(=O)N(C)C)c(=O)n3C)sc1Cl [Example 322, 2-[6-(5-Chloro-4-methyl-2-thienyl)-3-methyl-2-oxo-imidazo[4,5-b]pyridin-1-yl]-N,N-dimethyl-acetamide]	0.023	–
Cc1cc(Cn2c(=O)[nH]c3ncc(-c4cc(F)cc(F)c4)cc32)no1 [Example 523, 6-(3,5-Difluorophenyl)-1-[(5-methylisoxazol-3-yl)methyl]-3H-imidazo[4,5-b]pyridin-2-one]	0.133	–
O=C(Cn1c(=O)n(CF)c2ncc(-c3ccc(C(F)(F)F)s3)cc21)N1CCC1 [Example 534, 1-[2-(Azetidin-1-yl)-2-oxo-ethyl]-3-(fluoromethyl)-6-[5-(trifluoromethyl)-2-thienyl]imidazo[4,5-b]pyridin-2-one]	0.036	–
Cc1cccc(-c2cnc3c(c2)n(Cc2cncc(Cl)c2)c(=O)n3C)c1 [Example 374, 1-[(5-Chloro-3-pyridyl)methyl]-3-methyl-6-(m-tolyl)imidazo[4,5-b]pyridin-2-one]	0.416	–
Cc1cccc(-c2cnc3c(c2)n(CC(=O)N(C)C)c(=O)n3C)c1 [Example 583, N,N-Dimethyl-2-[3-methyl-6-(m-tolyl)-2-oxo-imidazo[4,5-b]pyridin-1-yl]acetamide]	0.051	–
Cc1cncc(Cn2c(=O)[nH]c3ncc(-c4cccc(F)c4)cc32)c1 [Example 274, 6-(3-Fluorophenyl)-1-[(5-methyl-3-pyridyl)methyl]-3H-imidazo[4,5-b]pyridin-2-one]	–	IC50 [3]: 0.057 µM
